From US8343698B2, “Photoreceptor, method of manufacturing same, image formation method, image forming apparatus, and process cartridge” (Ricoh Company, Ltd., priority 2009, dated 2013)

System: salmonella of TA1535
Assay: Mutation test (Ames test), plate method
Format: cell-based
Settings: strain TA1535, plate method, under metabolic activity condition, 625 to 10,000 micro gram/plate, maximum number of colonies divided by colonies in control solvent, tested on the TMPTA monomer of each example
Description: One time absorption refinement treatment is effective but multiple time absorption refinement treatments are preferable to improve the removal effect of the impurities. A number of methods for use in the present invention of measuring the safety of the radical polymerizable monomer can be used. Ames test (mutagen test) is employed in the present invention.
Ames test is a test in which germs are used. The strain among salmonellas used in the test is histidine auxotroph (his−), which cannot synthesize histidine. In the test, the number of colonies of recoveries from histidine auxotroph (his−) to (his+) which can synthesize histidine again as a result of a test material reacting with the strain is counted to determine the mutation property of the material.
Currently, among these strains, TA1535, TA1537, TA100, TA98 or WP2uvrA—are generally used. When TA1535 is used, radical polymerizable monomers in the market are frequently positive. Therefore, TA1535 test is employed in the present invention.
“Mutation test in Ordinance on Safety and Hygiene—Guideline and GLP— (published by Japan industrial Safety & Health Association)” is referred to with regard to the specific test method.
A mutation test (Ames test) is employed to check the safety in the present invention.
A plate method is adopted as the test method in the present invention.
TA1535 is used as the strain and the test is conducted under the condition of metabolic activity.
Add 250 mg of dimethylsulfoxide (DIMSO) to 250 mg of a radical polymerizable monomer having at least 3 functional groups with no charge transport structure followed by ultrasonic treatment for one minute to prepare a clear solution for the test.
5 kinds of densities (625 micro gram/plate, 1,250 micro gram/plate, 2,500 micro gram/plate, 5,000 micro gram/plate, and 10,000 micro gram/plate) of the radical polymerizable monomer having at least 3 functional groups with no charge transport structure are used. Among these, the quotient (referred to as “colony increase multiple” in the present invention) obtained by dividing the maximum number of the colonies with the number of colonies in the control solvent is used for comparison. The smaller the quotient, the safer the test sample.

SMILES	Colony increase multiple	other results
C=CC(=O)OCC(CC)(COC(=O)C=C)COC(=O)C=C [Comp. 1, trimethylol propane triacrylate]	3.4	Colony increase multiple (listed as Comparative Example 1): 3.4
C=CC(=O)OCC(CC)(COC(=O)C=C)COC(=O)C=C [Comp. 2, trimethylol propane triacrylate]	2.7	Colony increase multiple (listed as Comparative Example 2): 2.7
C=CC(=O)OCC(CC)(COC(=O)C=C)COC(=O)C=C [Comp. 3, trimethylol propane triacrylate]	2.7	Colony increase multiple (listed as Comparative Example 3): 2.7
C=CC(=O)OCC(CC)(COC(=O)C=C)COC(=O)C=C [Ex. 1, trimethylol propane triacrylate]	1.2	Colony increase multiple (listed as Example 1): 1.2
C=CC(=O)OCC(CC)(COC(=O)C=C)COC(=O)C=C [Ex. 2, trimethylol propane triacrylate]	1.1	Colony increase multiple (listed as Example 2): 1.1
C=CC(=O)OCC(CC)(COC(=O)C=C)COC(=O)C=C [Ex. 3, trimethylol propane triacrylate]	1.2	Colony increase multiple (listed as Example 3): 1.2
C=CC(=O)OCC(CC)(COC(=O)C=C)COC(=O)C=C [Ex. 4, trimethylol propane triacrylate]	1.1	Colony increase multiple (listed as Example 4): 1.1
C=CC(=O)OCC(CC)(COC(=O)C=C)COC(=O)C=C [Ex. 5, trimethylol propane triacrylate]	1.4	Colony increase multiple (listed as Example 5): 1.4
C=CC(=O)OCC(CC)(COC(=O)C=C)COC(=O)C=C [Ex. 6, trimethylol propane triacrylate]	2.5	Colony increase multiple (listed as Example 6): 2.5
C=CC(=O)OCC(CC)(COC(=O)C=C)COC(=O)C=C [Ex. 7, trimethylol propane triacrylate]	1.9	Colony increase multiple (listed as Example 7): 1.9
C=CC(=O)OCC(CC)(COC(=O)C=C)COC(=O)C=C [Ex. 8, trimethylol propane triacrylate]	2.6	Colony increase multiple (listed as Example 8): 2.6
C=CC(=O)OCC(CC)(COC(=O)C=C)COC(=O)C=C [Ex. 9, trimethylol propane triacrylate]	2.1	Colony increase multiple (listed as Example 9): 2.1
C=CC(=O)OCC(CC)(COC(=O)C=C)COC(=O)C=C [Ex. 10, trimethylol propane triacrylate]	1.9	Colony increase multiple (listed as Example 10): 1.9
C=CC(=O)OCC(CC)(COC(=O)C=C)COC(=O)C=C [Ex. 11, trimethylol propane triacrylate]	1.4	Colony increase multiple (listed as Example 11): 1.4
C=CC(=O)OCC(CC)(COC(=O)C=C)COC(=O)C=C [Ex. 12, trimethylol propane triacrylate]	1.4	Colony increase multiple (listed as Example 12): 1.4
